This assay has as its target T1, human Bradykinin B1 receptor (Homo sapiens, UniProt P46663).
T1 construct: host or cells: CHO-K1
T1 sequence (P46663 1-353): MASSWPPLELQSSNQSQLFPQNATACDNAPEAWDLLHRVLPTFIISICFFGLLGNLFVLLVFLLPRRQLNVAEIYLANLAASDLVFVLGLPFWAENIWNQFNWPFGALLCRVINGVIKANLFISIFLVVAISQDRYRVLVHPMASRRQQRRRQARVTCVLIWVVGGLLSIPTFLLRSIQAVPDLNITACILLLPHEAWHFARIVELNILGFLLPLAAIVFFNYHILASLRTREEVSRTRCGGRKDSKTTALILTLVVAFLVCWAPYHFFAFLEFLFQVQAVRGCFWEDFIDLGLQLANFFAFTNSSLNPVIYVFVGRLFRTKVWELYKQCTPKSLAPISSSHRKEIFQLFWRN
Description: Calcium flux assay (FLIPR), CHO-K1 cells expressing human Bradykinin B1 receptor, absence of 0.1% BSA (hB1 free IC50). Type of assay: cell-based. To be noted: absence of 0.1% BSA in assay buffer. Summed up:
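CHO-K1 hB1-D1 cells, dye-loaded, given compounds (8 concentrations, triplicate, 1% DMSO) 30 min at 28° C, then stimulated with selective B1 agonist peptide; Ca2+ fluorescence read at 538 nm on FLIPR. Peak response normalised to DMSO and 20 µM Lys-(Des-Arg-Leu)-Bradykinin full inhibition; IC50 fitted.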
(In general: A change in cytosolic calcium serves as a functional read-out for many receptors and channels.)

The IC50 is the concentration at which inhibition is half-maximal. Regarding `Cn1ncc2ccc(-c3ccc(NC(=O)C4(c5ccc(OC(F)(F)F)cc5F)CC4)cc3C(=O)O)cc21` [Example 164, 5-[({1-[2-Fluoro-4-(trifluoromethoxy)phenyl]cyclopropyl}carbonyl)amino]-2-(1-methyl-1H-indazol-6-yl)benzoic acid], the concentration for half-maximal inhibition (IC50) amounted to 120 nM.

As for `O=C(O)c1cc(NC(=O)C2(c3cc(F)ccc3F)CC2)ccc1-c1cnn(C2CCC2)c1` [Example 55, 2-(1-Cyclobutyl-1H-pyrazol-4-yl)-5-({[1-(2,5-difluorophenyl)cyclopropyl]carbonyl}amino)benzoic acid], the IC50 stood at 280 nM.

As to `CC(C)(C)n1cc(-c2c(F)cc(NC(=O)C3(c4ccc(C(F)(F)F)cc4F)CC3)cc2C(=O)O)cn1` [Example 93, 2-(1-tert-Butyl-1H-pyrazol-4-yl)-3-fluoro-5-[({1-[2-fluoro-4-(trifluoromethyl)phenyl]cyclopropyl}carbonyl)amino]benzoic acid], the IC50 amounted to 61 nM. Then `COc1ccc(F)c(C2(C(=O)Nc3ccc(-c4cnn(C5CCC5)c4)c(C(=O)O)c3)CC2)c1` [Example 63, 2-(1-Cyclobutyl-1H-pyrazol-4-yl)-5-({[1-(2-fluoro-5-methoxyphenyl)cyclopropyl]carbonyl}amino)benzoic acid], with 3000 nM; and `Cc1ccc(C2(C(=O)Nc3ccc(-c4cnn(C5CCC5)c4)c(C(=O)O)c3)CC2)cc1F` [Example 81, 2-(1-Cyclobutyl-1H-pyrazol-4-yl)-5-({[1-(3-fluoro-4-methylphenyl)cyclopropyl]carbonyl}amino)benzoic acid], with 680 nM.

Regarding `CC(F)(F)c1ccc(-c2ccc(NC(=O)C3(c4ccc(OC(F)(F)F)cc4F)CC3)cc2C(=O)O)cn1` [Example 32, 2-[6-(1,1-Difluoroethyl)pyridin-3-yl]-5-[({1-[2-fluoro-4-(trifluoromethoxy)phenyl]cyclopropyl}carbonyl)amino]benzoic acid], the IC50 was found to be 190 nM.

Turning to `O=C(O)c1cc(NC(=O)C2(c3ccc(C(F)(F)F)cc3F)CC2)ccc1-c1ccc(C(F)(F)F)s1` [Example 48, 5-[({1-[2-Fluoro-4-(trifluoromethyl)phenyl]cyclopropyl}carbonyl)amino]-2-[5-(trifluoromethyl)-2-thienyl]benzoic acid], the IC50 worked out at 220 nM. Then `CC[C@H](C)n1cc(-c2ccc(NC(=O)C3(c4ccc(C(F)(F)F)cc4F)CC3)cc2C(=O)O)cn1` [Example 131, 2-{1-[(2S)-Butan-2-yl]-1H-pyrazol-4-yl}-5-[({1-[2-fluoro-4-(trifluoromethyl)phenyl]cyclopropyl}carbonyl)amino]benzoic acid], with 50 nM; and `O=C(O)c1cc(NC(=O)C2(Cc3ccc(Cl)cc3)CC2)cc(F)c1-c1cnn(C2CCC2)c1` [Example 142, 5-({[1-(4-Chlorobenzyl)cyclopropyl]carbonyl}amino)-2-(1-cyclobutyl-1H-pyrazol-4-yl)-3-fluorobenzoic acid], with 3100 nM. As to `O=C(O)c1cc(NC(=O)C2(c3ccc(C(F)(F)F)cc3F)CC2)ccc1-c1cnc(C2CCCC2)s1` [Example 167, 2-(2-Cyclopentyl-1,3-thiazol-5-yl)-5-[({1-[2-fluoro-4-(trifluoromethyl)phenyl]cyclopropyl}carbonyl)amino]benzoic acid], the IC50 was determined as 3.4 nM. Then `Cc1ccc(C2(C(=O)Nc3ccc(-c4cnc(C5CCC5)s4)c(C(=O)O)c3)CC2)c(F)c1` [Example 147, 2-(2-Cyclobutyl-1,3-thiazol-5-yl)-5-({[1-(2-fluoro-4-methylphenyl)cyclopropyl]carbonyl}amino)benzoic acid], with 13 nM; and `CC(C)(C)c1cn(-c2c(F)cc(NC(=O)C3(c4ccc(C(F)(F)F)cc4F)CC3)cc2C(=O)O)cn1` [Example 90, 2-(4-tert-Butyl-1H-imidazol-1-yl)-3-fluoro-5-[({1-[2-fluoro-4-(trifluoromethyl)phenyl]cyclopropyl}carbonyl)amino]benzoic acid], with 24 nM. As for `CC(O)c1ccc(-c2ccc(NC(=O)C3(c4ccc(C(F)(F)F)cc4F)CC3)cc2C(=O)O)cn1` (stereo not shown) [Example 33, 5-[({1-[2-Fluoro-4-(trifluoromethyl)phenyl]cyclopropyl}carbonyl)amino]-2-[6-(1-hydroxyethyl)pyridin-3-yl]benzoic acid], the IC50 stood at 460 nM. Turning to `CC1(C)CC1(C(=O)Nc1ccc(-c2cnn(C3CCC3)c2)c(C(=O)O)c1)c1ccccc1F` (stereo not shown) [Example 64, 2-(1-Cyclobutyl-1H-pyrazol-4-yl)-5-({[1-(2-fluorophenyl)-2,2-dimethylcyclopropyl]carbonyl}amino)benzoic acid], the IC50 was determined as 1300 nM. Then `O=C(O)c1cc(NC(=O)C2(c3ccc(C(F)(F)F)cc3F)CC2)ccc1-c1cnn(CC2CCC2)c1` [Example 119, 2-[1-(Cyclobutylmethyl)-1H-pyrazol-4-yl]-5-[({1-[2-fluoro-4-(trifluoromethyl)phenyl]cyclopropyl}carbonyl)amino]benzoic acid], with 25 nM; and `O=C(O)c1cc(NC(=O)C2(c3ccc(F)cn3)CC2)ccc1-c1cnn(C2CCC2)c1` [Example 82, 2-(1-Cyclobutyl-1H-pyrazol-4-yl)-5-({[1-(5-fluoropyridin-2-yl)cyclopropyl]carbonyl}amino)benzoic acid], with 2500 nM; and `O=C(O)c1cc(NC(=O)C2(c3ccc(C(F)(F)F)cc3F)CC2)cc(Cl)c1-c1ccc(C(F)F)nc1` [Example 102, 3-Chloro-2-[6-(difluoromethyl)pyridin-3-yl]-5-[({1-[2-fluoro-4-(trifluoromethyl)phenyl]cyclopropyl}carbonyl)amino]benzoic acid], with 110 nM. With `Cc1cc(NC(=O)C2(c3ccc(C(F)(F)F)cc3F)CC2)cc(C(=O)O)c1-c1ccc(C(F)F)nc1` [Example 109, 2-[6-(Difluoromethyl)pyridin-3-yl]-5-[({1-[2-fluoro-4-(trifluoromethyl)phenyl]cyclopropyl}carbonyl)amino]-3-methylbenzoic acid] the figure was 770 nM.

On to `O=C(O)c1cc(NC(=O)C2(c3ccc(C(F)(F)F)cc3F)CC2)ccc1-c1cnn(C2CC2)c1` [Example 124, 2-(1-Cyclopropyl-1H-pyrazol-4-yl)-5-[({1-[2-fluoro-4-(trifluoromethyl)phenyl]cyclopropyl}carbonyl)amino]benzoic acid], for which the IC50 was found to be 200 nM. With `CC[C@@H](C)n1cc(-c2ccc(NC(=O)C3(c4ccc(OC(F)(F)F)cc4F)CC3)cc2C(=O)O)cn1` [Example 134, 2-{1-[(2R)-Butan-2-yl]-1H-pyrazol-4-yl}-5-[({1-[2-fluoro-4-(trifluoromethoxy)phenyl]cyclopropyl}carbonyl)amino]benzoic acid] the figure was 44 nM. Then `CC[C@@H](C)n1cc(-c2ccc(NC(=O)C3(c4ccc(C(F)(F)F)cc4F)CC3)cc2C(=O)O)cn1` [Example 133, 2-{1-[(2R)-Butan-2-yl]-1H-pyrazol-4-yl}-5-[({1-[2-fluoro-4-(trifluoromethyl)phenyl]cyclopropyl}carbonyl)amino]benzoic acid], with 59 nM; and `O=C(O)c1cc(NC(=O)C2(c3ccc(C(F)(F)F)cc3F)CC2)ccc1-c1cnn([C@H]2CCOC2)c1` [Example 84, 5-[({1-[2-Fluoro-4-(trifluoromethyl)phenyl]cyclopropyl}carbonyl)amino]-2-{1-[(3S)-tetrahydrofuran-3-yl]-1H-pyrazol-4-yl}benzoic acid], with 570 nM; and `O=C(O)c1cc(NC(=O)C2(c3ccc(C(F)(F)F)cc3F)CC2)cc(F)c1-c1ccc(C(F)F)nc1` [Example 94, 2-[6-(Difluoromethyl)pyridin-3-yl]-3-fluoro-5-[({1-[2-fluoro-4-(trifluoromethyl)phenyl]cyclopropyl}carbonyl)amino]benzoic acid], with 20 nM. With `O=C(O)c1cc(NC(=O)C2(c3ccc(F)c(F)c3)CC2)cc(F)c1-c1cnn(C2CCC2)c1` [Example 38, 2-(1-Cyclobutyl-1H-pyrazol-4-yl)-5-({[1-(3,4-difluorophenyl)cyclopropyl]carbonyl}amino)-3-fluorobenzoic acid] the figure was 22 nM; with `O=C(O)c1cc(NC(=O)C2(c3ccc(C(F)(F)F)cc3F)CC2)ccc1-c1cnn(CC(F)(F)F)c1` [Example 34, 5-[({1-[2-Fluoro-4-(trifluoromethyl)phenyl]cyclopropyl}carbonyl)amino]-2-[1-(2,2,2-trifluoroethyl)-1H-pyrazol-4-yl]benzoic acid], 31 nM.

The record behind these values is patent US12023319B2, “Carboxylic acid aromatic amides” (priority 2016, dated 2024).
